Data reported in the supplement of paper PMC11061612.

Key:
Experiment in all cases: Bliss excess, mean over the matrix (fraction); higher = more synergy
[1] = system: KMS-12-BM (Plasma Cell Myeloma)
In short: (§1)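 After 24 hours at 37°C and 5% CO2 in 1536-well plates, cells in DMEM/F12 or RPMI plus 10% FBS received two-drug dose matrices for 72 hours. Viability came from CellTiter-Glo 2.0 luminescence and was scaled as inhibition, anchored at 0 by vehicle wells and at 1 by blank wells. Combination Emax is taken as the second-highest inhibition in the matrix, and Bliss excess as the observed combination effect less EA + EB − EA·EB, with EA and EB the single-agent effects.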

[2] = system: DAN-G (Pancreatic Carcinoma)
In short: as §1

[3] = system: CW-2 (Colorectal Carcinoma)
In short: as §1

[4] = system: SUP-B15 (B-Lymphoblastic Leukemia)
In short: as §1

[5] = system: COR-L279 (Small Cell Lung Carcinoma)
In short: as §1

[6] = system: NCI-H526 (Small Cell Lung Carcinoma)
In short: as §1

[7] = system: DMS-114 (Small Cell Lung Carcinoma)
In short: as §1

[8] = system: KP-3 (Pancreatic Carcinoma)
In short: as §1

[9] = system: SK-GT-2 (Gastric Carcinoma)
In short: as §1

[10] = system: 8505C (Thyroid Gland Carcinoma)
In short: as §1

[11] = system: ST486 (Burkitt's Lymphoma)
In short: as §1

[12] = system: KYSE-270 (Esophageal Squamous Cell Carcinoma)
In short: as §1

[13] = system: HCC1419 (Breast Carcinoma)
In short: as §1

[14] = system: SNU-398 (Hepatocellular Carcinoma)
In short: as §1

[15] = system: VMRC-RCZ (Kidney Carcinoma)
In short: as §1

[16] = system: NCCIT (Other Solid Carcinomas)
In short: as §1

[17] = system: MOLM-13 (Acute Myeloid Leukemia)
In short: as §1

M059J (Glioblastoma) = system: M059J (Glioblastoma)
In short: as §1

[18] = system: MN-60 (B-Lymphoblastic Leukemia)
In short: as §1

[19] = system: RPMI-8226 (Plasma Cell Myeloma)
In short: as §1

SMILES | Bliss excess [1] | Bliss excess [2] | Bliss excess [3] | Bliss excess [4] | Bliss excess [5] | Bliss excess [6] | Bliss excess [7] | Bliss excess [8] | Bliss excess [9] | Bliss excess [10] | Bliss excess [11] | Bliss excess [12] | Bliss excess [13] | Bliss excess [14] | Bliss excess [15] | Bliss excess [16] | Bliss excess [17] | Bliss excess (M059J (Glioblastoma)) | Bliss excess [18] | Bliss excess [19]
C=CCn1c(=O)c2cnc(Nc3ccc(N4CCN(C)CC4)cc3)nc2n1-c1cccc(C(C)(C)O)n1 [AZD1775] + C[C@@H]1COCCN1C2=NC(=NC(=C2)C3(CC3)[S@](=N)(=O)C)C4=C5C=CNC5=NC=C4 [AZD6738] (first compound max 1 µM, partner max 10 µM) | 0.0418 | -0.0079 | 0.0554 | 0.0535 | 0.0131 | 0.0576 | 0.0422 | -0.0075 | -0.0189 | -0.0076 | -0.0044 | 0.0567 | -0.0034 | -0.0067 | -0.0639 | 0.0526 | 0.0233 | -0.0206 | 0.0165 | 0.0407
C[C@@H](c1ccc2nccn2c1)n1nnc2ncc(-c3cnn(C)c3)nc21 [Savolitinib] + CC1(C)CCC(CN2CCN(c3ccc(C(=O)NS(=O)(=O)c4ccc(NCC5CCOCC5)c([N+](=O)[O-])c4)c(Oc4cnc5[nH]ccc5c4)c3)CC2)=C(c2ccc(Cl)cc2)C1 [Venetoclax] (first compound max 1 µM, 7x7, partner max 1 µM) | 0.0253 | -0.09 | -0.0459 | -0.0465 | -0.0059 | 0.0111 | 0.0131 | -0.0762 | -0.0144 | -0.0664 | -0.0481 | -0.0463 | -0.0225 | -0.057 | -0.0374 | -0.0394 | 0.0025 | -0.0321 | -0.0341 | -0.0456
Cc1c2c(nn1C)CSCc1cc(n(C)n1)CSc1cc(c3ccccc3c1)OCCCc1c(C(=O)O)n(C)c3c-2c(Cl)ccc13 [AZD5991] + CCN(CCO)CCCOc1ccc2c(Nc3cc(CC(=O)Nc4cccc(F)c4)[nH]n3)ncnc2c1 [AZD2811] (first compound max 1 µM, 7x7, partner max 1 µM) | 0.0257 | 0.0055 | 0.0059 | 0.0125 | 0.0162 | 0.123 | 0.0287 | -0.0026 | 0.039 | 0.119 | -0.0575 | 0.0998 | -0.0638 | 0.0359 | 0.016 | -0.0049 | 0.024 | -0.0074 | 0.0086 | 0.0744
C[C@@H]1COCCN1c1cc(C2([S@](C)(=N)=O)CC2)nc(-c2ccnc3[nH]ccc23)n1 [AZD6738] + O=C(c1cc(Cc2n[nH]c(=O)c3ccccc23)ccc1F)N1CCN(C(=O)C2CC2)CC1 [Olaparib] (first compound max 10 µM, 7x7, partner max 10 µM) | -0.0189 | -0.0051 | 0.0008 | -0.0608 | 0.0042 | -0.0072 | 0.0254 | 0.0143 | 0.0148 | 0.0004 | -0.0026 | -0.013 | -0.0175 | 0.0108 | 0.0181 | 0.0227 | -0.0526 | 0.0113 | -0.042 | -0.0189
COc1nnc2ccc(N3CCC(c4ccc(OCCN5CCN(C)C(=O)[C@H]5C)cc4)CC3)nn12 [AZD5153] + C=CCn1c(=O)c2cnc(Nc3ccc(N4CCN(C)CC4)cc3)nc2n1-c1cccc(C(C)(C)O)n1 [AZD1775] (first compound max 1 µM, partner max 1 µM) | -0.0243 | -0.0496 | 0.0072 | 0.0252 | -0.0192 | -0.0252 | -0.0367 | 0.0038 | -0.0008 | 0.0074 | -0.0492 | -0.067 | -0.0724 | -0.0315 | -0.0287 | -0.0858 | -0.0225 | -0.106 | -0.067 | -0.0059
COc1cccc(OCCCN)c1-c1cc(Nc2cnc(C#N)cn2)n[nH]1 [Prexasertib] + C=CCn1c(=O)c2cnc(Nc3ccc(N4CCN(C)CC4)cc3)nc2n1-c1cccc(C(C)(C)O)n1 [AZD1775] (first compound max 1 µM, partner max 1 µM) | 0.0595 | -0.0093 | 0.0224 | 0.0224 | 0.0823 | 0.0502 | 0.0129 | -0.0138 | 0.0286 | 0.0849 | 0.0276 | 0.217 | -0.0136 | 0.0254 | -0.02 | 0.0561 | 0.036 | 0.178 | 0.0534 | 0.0893
COc1cccc2c1C(=O)c1c(O)c3c(c(O)c1C2=O)C[C@@](O)(C(=O)CO)C[C@@H]3O[C@H]1C[C@H](N)[C@H](O)[C@H](C)O1 [Doxorubicin] + Cc1cc2ncnn2cc1Nc1ncc2c(n1)n(C1CCOCC1)c(=O)n2C [AZD7648] (first compound max 1 µM, 7x7, partner max 10 µM) | 0.0946 | 0.0173 | -0.0002 | 0.153 | 0.0715 | 0.0586 | 0.0288 | -0.0405 | -0.0051 | 0.0859 | 0.0895 | 0.0494 | -0.128 | 0.056 | -0.024 | -0.0142 | 0.0551 | -0.0255 | 0.0759 | 0.124
COc1cccc(OCCCN)c1-c1cc(Nc2cnc(C#N)cn2)n[nH]1 [Prexasertib] + C[C@@H]1COCCN1C2=NC(=NC(=C2)C3(CC3)[S@](=N)(=O)C)C4=C5C=CNC5=NC=C4 [AZD6738] (first compound max 1 µM, 7x7, partner max 10 µM) | -0.0071 | -0.0309 | 0.0785 | -0.0671 | 0.0035 | 0.0283 | 0.0485 | 0.0162 | -0.0043 | -0.0075 | -0.0336 | -0.0323 | -0.0473 | 0.026 | 0.0255 | 0.011 | -0.0051 | -0.0325 | -0.0035 | -0.006
